Results reported in ChEMBL document CHEMBL1667788, “Novel dammarane-type sapogenins from Panax ginseng berry and their biological activities” (Bioorg Med Chem Lett, 2011).
pIC50: −log10 of the molar value.

Experiments:
Format in all cases: functional, cell-based
MCF7 = experiment: Cytotoxicity against human MCF7 cells after 72 hrs by MTT assay; conditions: MCF7, 72 h
HepG2 = experiment: Cytotoxicity against human HepG2 cells after 72 hrs by MTT assay; conditions: HepG2, 72 h
COLO 205 = experiment: Cytotoxicity against human COLO205 cells after 72 hrs by MTT assay; conditions: COLO 205, 72 h
HL-60 = experiment: Cytotoxicity against human HL60 cells after 72 hrs by MTT assay; conditions: HL-60, 72 h
A549 = experiment: Cytotoxicity against human A549 cells after 72 hrs by MTT assay; conditions: A549, 72 h
DU-145 = experiment: Cytotoxicity against human DU145 cells after 72 hrs by MTT assay; conditions: DU-145, 72 h

| SMILES | pIC50 (MCF7) | pIC50 (HepG2) | pIC50 (COLO 205) | pIC50 (HL-60) | pIC50 (A549) | pIC50 (DU-145) |
| --- | --- | --- | --- | --- | --- | --- |
| CC(C)[C@]12CC[C@](C)(O1)[C@H]1CC[C@]3(C)[C@@H]1[C@@H](C[C@@H]1[C@@]4(C)CC[C@H](O)C(C)(C)[C@@H]4CC[C@]13C)O2 | 4.31 | 4.19 | 4.15 | 4.37 |  |  |
| CC(C)(O)CCC[C@@](C)(O)[C@H]1CC[C@]2(C)[C@@H]1[C@H](O)C[C@@H]1[C@@]3(C)CC[C@H](O)C(C)(C)[C@@H]3CC[C@]12C | 4.47 | 4.34 | 4.72 | 5.10 | 4.52 |  |
| CC(C)=CCCC(C)(O)[C@H]1CC[C@]2(C)[C@@H]1[C@H](O)C[C@@H]1[C@@]3(C)CC[C@H](O)C(C)(C)[C@@H]3CC[C@]12C (single isomer, unassigned) | 5.18 | 4.40 | 4.31 | 4.57 | 4.00 | 4.22 |
| COC(C)(C)CCC[C@@](C)(O)[C@H]1CC[C@]2(C)[C@@H]1[C@H](O)C[C@@H]1[C@@]3(C)CC[C@H](O)C(C)(C)[C@@H]3CC[C@]12C | 5.08 | 5.08 | 4.85 | 5.07 | 4.45 | 4.93 |
